Test results taken from patent US8350026B2, “VEGF-2 receptor and protein tyrosine kinase inhibitors and pharmaceutical use thereof” (Leo Pharma A/S, priority 2008, dated 2013).

Legend:
VEGFR-2 (KDR) = biological target: T1, VEGFR-2 (KDR) (Homo sapiens, UniProt P35968); test: KDR Assay - HTRF KinEASE-TK (in vitro KDR inhibition); assay type: biochemical; conditions: ATP 100 μM, 15 minutes at rt
T1 construct: purchased Millipore 14-630
Method: KDR Assay—HTRF KinEASE-TK
The compounds to be tested were dissolved in DMSO at 10 mM, stored at −20° C. and protected from light. The maximum concentration of DMSO in the in vitro assay was 0.75%. Control samples received the same concentration of solvent as the samples treated with the test compounds.
For the kinase assays, the HTRF KinEase™-TK kit (CisBio (#62TKOPEJ) was used. All components in HTRF KinEase™-TK kit were handled according to suppliers description. Briefly, DMSO stock solution of compounds (100% DMSO) were prediluted to 6% DMSO in 50 mM Hepesbuffer+0.05% BSA (Sigma Aldrich (A3294)) before transferring 1 μl to a 384-well Proxyplate (Perkin Elmer (#6008289) at RT. Kinase Substrate (2 μL, CisBio) was added to Proxyplate with compound. Enzyme mix (5 μL, Millipore (14-630)) with ATP (100 μM, Sigma Aldrich (A7699)), MgCl2 (5 mM; Sigma Aldrich M1028) and SEB (50 nM, CisBio) was added to start the reaction. The plates were incubated for 15 minutes at rt. The assay was stopped by addition of Detection mix (4 μL, CisBio) and plates were sealed and spun for 1 min at 1000 rpm. The plates were incubated in darkness over night at rt. The plates were read on an Envision (Perkin Elmer) plate reader. Signal from two wave lengths (665 and 620 nm) upon excitation at 340 nm in accordance to manufactures instructions. Briefly, fluorescence was measured for 400 μs between flashes after a delay time of 400 μs. The background measured in the absence of enzyme was subtracted from all samples. The molar concentrations that inhibited 50% of the maximal enzymatic activity (IC50) were calculated using a four-parameter sigmoid curve fit model of the dose-response curve, based on the following equation: y=((a−d)/(1+(x/c)^b))+d; where a is the minimum value, d is the maximum value, c is the IC50 value and […].

[1] = Metabolic stability in human liver microsomes (HLM); assay type: in vitro ADME; parameters: CLint scaled: dose or concentration left out as unconfirmed; conditions: both sexes, pH 7.4; for CL/F at 0.5 μM: human liver microsomes 0.5 mg protein/mL, NADPH 1 mM, test compound 0.5 μM, 37° C., 30 minutes, read-out: HLM (apparent clearance)
Method: The metabolic stability is tested in human liver microsomes (In Vitro Technologies, pooled mixed sexes, 20 mg/mL); a subcellular fraction containing major drug-metabolizing phase I enzymes, including the cytochrome P450 (CYP) family and flavin monooxygenases (FMO). The apparent clearance (mL/min/kg) is calculated as a measurement of test compound elimination from the liver.
Procedure: A human microsome incubation mixture (0.5 mg microsomal protein/mL) in phosphate buffer (pH 7.4, 100 mM KH2PO4/10 mM MgCl2) is mixed with NADPH (1 mM). The mixture is pre-heated (7 min) to 37° C., test compound (0.5 μM) is added, and the mixture is incubated for 30 minutes. Incubations are run in duplicate and performed by a Tecan RSP. Samples are withdrawn at 0, 5, 10, 20, and 30 min and mixed with methanol containing internal standard to terminate all enzyme activity and precipitate proteins. […] Samples are analysed by LC-MS/MS.
Data analysis: The logarithm of the peak area ratios of test compound to internal standard versus incubation time is plotted in a graph. The rate constant (k) of test compound depletion is calculated from the linear part of the curve (Eq. 1) and the half-time (t1/2) is calculated from the slope (Eq. 2). Rate constant(k)(min^−1)=−slope Eq. 1 Half-time(t1/2)(min)=ln 2/k Eq. 2
Clint(mL/min/mg protein)=k/Protein concentration Eq. 3

[2] = human, human liver microsomes, HLM assay reference compounds, read-out: intrinsic clearance values of HLM assay reference compounds

T1 sequence (P35968 790-1356 limits assumed): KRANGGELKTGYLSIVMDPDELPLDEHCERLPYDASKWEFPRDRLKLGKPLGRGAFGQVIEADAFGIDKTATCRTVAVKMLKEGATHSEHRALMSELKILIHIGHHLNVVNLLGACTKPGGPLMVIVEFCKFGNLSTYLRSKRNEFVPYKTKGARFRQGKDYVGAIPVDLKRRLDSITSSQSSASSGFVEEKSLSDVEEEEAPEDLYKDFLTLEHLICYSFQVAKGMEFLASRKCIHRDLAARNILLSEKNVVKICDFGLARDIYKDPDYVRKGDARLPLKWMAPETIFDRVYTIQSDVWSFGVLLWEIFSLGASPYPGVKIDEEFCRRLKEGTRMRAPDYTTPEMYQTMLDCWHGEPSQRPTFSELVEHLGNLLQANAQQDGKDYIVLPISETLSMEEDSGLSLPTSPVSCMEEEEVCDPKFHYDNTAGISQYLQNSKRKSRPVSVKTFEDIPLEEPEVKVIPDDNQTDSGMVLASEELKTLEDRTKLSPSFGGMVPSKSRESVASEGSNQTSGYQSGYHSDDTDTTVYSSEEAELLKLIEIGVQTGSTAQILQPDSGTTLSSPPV

`CC(C)(C)CCNC(=O)c1ccccc1NCc1ccnc(NC(=O)c2ccco2)c1` [Compound 107, Furan-2-carboxylic acid (4-{[2-(3,3-dimethyl-butylcarbamoyl)-phenylamino]-methyl}-pyridin-2-yl)-amide] showed an IC50 (VEGFR-2 (KDR)) of 39 nM and a CL/F at 0.5 μM [1] of over 200 mL/min/kg.
`CCC(CC)CCNC(=O)c1ccccc1NCc1ccnc(NC(=O)c2ccco2)c1` [Compound 109, Furan-2-carboxylic acid (4-{[2-(3-ethyl-pentylcarbamoyl)-phenylamino]-methyl}-pyridin-2-yl)-amide] showed an IC50 (VEGFR-2 (KDR)) of 53 nM and a CL/F at 0.5 μM [1] of over 200 mL/min/kg.
Work on `CC(=O)Nc1cc(CNc2ccccc2C(=O)NCCC2CCCC2)ccn1` [Compound 102, 2-[(2-Acetylamino-pyridin-4-ylmethyl)-amino]-N-(2-cyclopentyl-ethyl)-benzamide] yielded an IC50 (VEGFR-2 (KDR)) of 8 nM and a CL/F at 0.5 μM [1] of over 200 mL/min/kg.
For `O=C(Nc1cc(CNc2ccccc2C(=O)NCCC2=CCCCC2)ccn1)c1ccco1` [Compound 108, Furan-2-carboxylic acid (4-{[2-(2-cyclohex-1-enyl-ethylcarbamoyl)-phenylamino]-methyl}-pyridin-2-yl)-amide], the IC50 (VEGFR-2 (KDR)) was 44 nM and the CL/F at 0.5 μM [1] was over 200 mL/min/kg.
For `CC(=O)CC(c1ccccc1)c1c(O)c2ccccc2oc1=O` (centres unmarked) [Warfarin, reference compound], the CLint scaled at 0.5 μM [1, 2] was under 10 mL/min/kg.
In the case of `CCC(CC)CCNC(=O)c1ccccc1NCc1ccnc(NC(=O)c2cnco2)c1` [Compound 104, Oxazole-5-carboxylic acid (4-{[2-(3-ethyl-pentylcarbamoyl)-phenylamino]-methyl}-pyridin-2-yl)-amide], the IC50 (VEGFR-2 (KDR)) is reported as 15 nM and the CL/F at 0.5 μM [1] is reported as 120 mL/min/kg.
`Cc1ncc2n1-c1ccc(Cl)cc1C(c1ccccc1F)=NC2` [Midazolam, reference compound] showed a CLint scaled [1, 2] of over 200 mL/min/kg.
With `CCC(CC)CCNC(=O)c1ccccc1NCc1ccnc(NC(C)=O)c1` [Compound 103, 2-[(2-Acetylamino-pyridin-4-ylmethyl)-amino]-N-(3-ethyl-pentyl)-benzamide] the IC50 (VEGFR-2 (KDR)) was 19 nM and the CL/F at 0.5 μM [1] was over 200 mL/min/kg.
`O=C(Nc1cc(CNc2ccccc2C(=O)NCCC2CCCC2)ccn1)c1ccco1` [Compound 105, Furan-2-carboxylic acid (4-{[2-(2-cyclopentyl-ethylcarbamoyl)-phenylamino]-methyl}-pyridin-2-yl)-amide] gave an IC50 (VEGFR-2 (KDR)) of 43 nM and a CL/F at 0.5 μM [1] of over 200 mL/min/kg.
`COC(=O)Nc1cc(CNc2ccccc2C(=O)NCCC(C)(C)C)ccn1` [Compound 101, (4-{[2-(3,3-Dimethyl-butylcarbamoyl)-phenylamino]-methyl}-pyridin-2-yl)-carbamic acid methyl ester] showed an IC50 (VEGFR-2 (KDR)) of 11 nM and a CL/F at 0.5 μM [1] of 135 mL/min/kg.
In the case of `CC(C)CCCNC(=O)c1ccccc1NCc1ccnc(NC(=O)c2ccco2)c1` [Compound 106, Furan-2-carboxylic acid (4-{[2-(4-methyl-pentylcarbamoyl)-phenylamino]-methyl}-pyridin-2-yl)-amide], the IC50 (VEGFR-2 (KDR)) is reported as 17 nM and the CL/F at 0.5 μM [1] is reported as over 200 mL/min/kg.
